The values that follow come from patent US6165986A (Taisho Pharmaceutical Co., Ltd., priority 1997, dated 2000).

Values after ≈ are worked out from the molar mass of the structure shown.

Holding throughout (format): cell-based
One experiment concerns S. aureus 209P-JC. Put plainly: In vitro antibacterial activity (MIC), S. aureus 209P-JC. The following applies: Staphylococcus aureus, sensitive disc media, Japan Society of Chemotherapy method, read-out: MIC value (Minimum Inhibitory Concentration). As for the experimental part:
(§1) The in vitro antibacterial activity of the compound obtained in Example 2 as an example of the compound of the present invention against various experimental bacteria was measured using sensitive disc media (produced by Eiken Chemical Co.) according to the MIC measuring method specified by the Japan Society of Chemotherapy. Clarithromycin was used as a comparative drug.

Another experiment deals with S. aureus Smith. Put plainly: In vitro antibacterial activity (MIC), S. aureus Smith. The note with it: Staphylococcus aureus, sensitive disc media, Japan Society of Chemotherapy method, read-out: MIC value (Minimum Inhibitory Concentration). The method, then: as §1
The next experiment relates to S. epidermidis IID 866. The experiment can be described thus: In vitro antibacterial activity (MIC), S. epidermidis IID 866. The following applies: Staphylococcus epidermidis, IID866, sensitive disc media, Japan Society of Chemotherapy method, read-out: MIC value (Minimum Inhibitory Concentration). The method, then: as §1
In a further experiment the test system is S. pneumoniae BM 211. Put plainly: In vitro antibacterial activity (MIC), S. pneumoniae BM 211. The following applies: Streptococcus pneumoniae, BM211, sensitive disc media, Japan Society of Chemotherapy method, read-out: MIC value (Minimum Inhibitory Concentration). As for the experimental part: as §1
The subject of the next experiment is E. faecalis CSJ 1212. Put plainly: In vitro antibacterial activity (MIC), E. faecalis CSJ 1212. The following applies: Enterococcus faecalis, CSJ1212, sensitive disc media, Japan Society of Chemotherapy method, read-out: MIC value (Minimum Inhibitory Concentration). As for the experimental part:
as §1

The next experiment has as its system S. pneumoniae BM 225. The experiment can be described thus: In vitro antibacterial activity (MIC), S. pneumoniae BM 225. The note with it: Streptococcus pneumoniae, BM225, sensitive disc media, Japan Society of Chemotherapy method, read-out: MIC value (Minimum Inhibitory Concentration). The method, then: as §1
The subject of experiment [1] is erythromycin-resistant bacteria. The experiment can be described thus: Antibacterial activity against erythromycin-resistant bacteria. As for the experimental part:
as §1

Experiment [2] has as its system erythromycin-sensitive bacteria. Put plainly: Antibacterial activity against erythromycin-sensitive bacteria. As for the experimental part:
as §1

The subject of another experiment is Haemophilus influenzae. Put plainly: Antibacterial activity against Haemophilus influenzae. The method, then: as §1

In the case of `CC[C@H]1OC(=O)[C@H](C)[C@@H](O[C@H]2C[C@@](C)(OC)[C@@H](O)[C@H](C)O2)[C@H](C)[C@@H](O[C@@H]2O[C@H](C)C[C@H](N(C)C)[C@H]2O)[C@](C)(OC)C[C@@H](C)C(=O)[C@H](C)[C@@H](O)[C@]1(C)O` [Comparative drug, Clarithromycin, reference compound], the MIC was 0.1 µg/mL (≈ 0.134 µM) in the experiment on S. aureus 209P-JC; 0.2 µg/mL (≈ 0.267 µM) with S. aureus Smith; 0.2 µg/mL (≈ 0.267 µM) in the experiment on S. epidermidis IID 866; more than 100 µg/mL in the experiment with S. pneumoniae BM 211; 0.2 µg/mL (≈ 0.267 µM) with E. faecalis CSJ 1212; 50 µg/mL (≈ 66.8 µM) in the experiment with S. pneumoniae BM 225.

For the compound `CC[C@H]1OC(=O)[C@H](C)C(=O)[C@H](C)[C@@H](O[C@@H]2O[C@H](C)C[C@H](N(C)C)[C@H]2O)[C@](C)(OC)C[C@@H](C)C(=O)[C@H](C)[C@H]2N(CCN(C)Cc3cccnc3)C(=O)O[C@]12C` [Example 2, 11-[2-[N-methyl-N-(3-pyridylmethyl)amino]ethyl]amino-3,11-dideoxy-3-oxo-5-O-desosaminyl-6-O-methylerythronolide A 11,12-cyclic carbamate], the MIC in the experiment on S. aureus 209P-JC turned out to be 0.05 µg/mL (≈ 0.0657 µM); in the experiment with S. aureus Smith, 0.1 µg/mL (≈ 0.131 µM); with S. epidermidis IID 866, 0.1 µg/mL (≈ 0.131 µM); with S. pneumoniae BM 211 it was 50 µg/mL (≈ 65.7 µM); with E. faecalis CSJ 1212 it was 0.05 µg/mL (≈ 0.0657 µM); with S. pneumoniae BM 225 it was 0.39 µg/mL (≈ 0.513 µM). Further, the “antibacterial activity (in words)” value (in experiment [1]; in experiment [2]; in the experiment on Haemophilus influenzae) was “strong antibacterial activity” each time.
